Molecules are shown by their SMILES. Like-named read-outs stand apart in the source and are kept apart here. Bounds are passed on as bounds.

Data on 5 molecules can be found in patent US20090054376A1, “BENZOFURAN DERIVATIVES WITH THERAPEUTIC ACTIVITIES” (Pharmos Corporation, priority 2005, published 2009).

Test [1] has as its target T1, Human CB1 Receptor (Homo sapiens, UniProt P21554).
T1 construct: expressed in transfected cells; host or cells: HEK-293 cells (membranes)
The test is described as follows: [35S]GTPγS-binding assay, hCB1. It counts as biochemical. The conditions noted are these: NB = no binding; for Emax: upper plateau of curve. As for the experimental part: (§1) Functional activity of compounds of the invention toward the cannabinoid receptors was determined by stimulation of [^35S]-GTPγS binding using membranes from HEK-293 cells expressing the hCB1 receptor and membranes expressing the hCB2 receptor derived from either Sf9 (PerkinElmer) or from HEK-293 cells. Activities were compared to that of the known cannabinoid full agonist CP55940 (Alexis). The purpose of this experiment is to determine the potency of the compounds of the invention as agonists or antagonists toward each of the receptor tested.
(§2) [^35S]-GTPγS binding reactions were performed at 30° C. in 96-well plates containing 5-10 μg membrane protein suspended in 0.1 ml binding buffer [20 mM HEPES-NaOH, pH 7.4, 5 mM MgCl2, 100 mM NaCl, 0.2% (w/v) bovine serum albumin] supplemented with 50 μM GDP and 0.06 nM-10 μM of the compound being tested. Binding was initiated by the addition of [^35S]GTPγS (0.3 nM final concentration). Incubations were performed for 90 minutes and were terminated by filtration on GF/C filter plates (PerkinEimer). Filters were washed ten times with ice-cold wash buffer (20 mM HEPES-NaOH, pH 7.4, 10 mM sodium pyrophosphate). Non-specific binding was measured in the presence of 15 μM GTPγS.
(§3) Assays were performed in duplicates. Data was analyzed by plotting on the X axis the log concentration against percent of specific [^35S]GTPγS binding out of basal [^35S]GTPγS binding on the Y axis, non-linear regression is then performed using GraphPad Prism, version 3.0 (GraphPad, San Diego, Calif.) to calculate the EC50 and Emax of the compound. The EC50 value represents the concentration at which there is 50% [^35S]GTPγS binding and the Emax value the upper plateau of the curve.

Test [2] addresses T2, Human CB2 Receptor (Homo sapiens, UniProt P34972).
T2 construct: host or cells: Sf9 or HEK-293 cells (membranes)
Kind of test: [35S]GTPγS-binding assay, hCB2. In kind it is biochemical. The settings on record: for selectivity toward CB2: GTPγS agonism, CB2 versus CB1; for EC50 / Emax / agonistic activity toward cannabinoid receptors (in words): GTPγS; for EC50 / Emax: Human CB2 Receptor, NB = no binding; for Emax: upper plateau of curve; for agonistic activity toward cannabinoid receptors (in words): hCB1 and hCB2. As for the experimental part:
as §1, §2, §3
(In general: GTPγS is a poorly hydrolysed GTP analogue; its binding reports G protein activation.)

For test [3], the system named is visceral pain writhing responses. Kind of test: Visceral pain, acetic acid induced writhing responses. It counts as in vivo, Male ICR mice. The settings on record: Mus musculus, iv, single dose 2 mg/kg i.v., compared to untreated group; read-out: Percent Inhibition of Visceral Pain Writhing Responses. As for the experimental part:
Male ICR mice (average body weight 25 g, Harlan, Israel) were pretreated by i.v. injection at volume dose of 5 ml/kg of vehicle, control and test compounds at various doses. Other routes of administration were tested for selected compounds including i.m. or s.c. injections at volume dose of 2.5 ml/kg and p.o. gavage at volume dose of 5 ml/kg. Compounds were dissolved in CREMOPHOR®:Ethanol and diluted 1:20 in saline prior to injection or gavage. Compounds administered i.v. were injected fifteen minutes before pain induction, whereas compounds administered i.m., s.c. or p.o. were supplied thirty minutes before pain induction, unless otherwise indicated. Each treatment group, except for controls comprising at least 30 animals, was composed of at least 6 animals. Fifteen or thirty minutes after drug administration, depending on the route of administration, the mice were injected i.p. with 10 ml/kg of 0.6% acetic acid and the number of visceral pain related behaviors (writhing movements globally defined as WR, i.e. stretching, contractions of the abdomen accompanied by an elongation of the body and extension of the hind limbs) was counted over a period of 5 minutes, starting 5 minutes after the acetic acid administration. These visceral pain related behaviors were globally defined as writhing responses (WR). The results are expressed as mean number of writhing responses ±SEM. Data were analyzed using analysis of variance (ANOVA) followed by post-hoc Fisher test.
For orientation: An intraperitoneal irritant provokes the stretching counted in writhing tests.

The test system of test [4] is carrageenan induced inflammatory pain and paw edema. The test is described as follows: Inflammatory pain and paw edema induced by carrageenan. The conditions noted are these: Rattus norvegicus, ip, 3 mg/kg i.p. (one asterisk), 3 hours. In kind it is in vivo, Male Sprague Dawley rats. As for the experimental part: Male Sprague Dawley rats (average body weight 200 g, Harlan, Israel) were transiently sedated by placement on dry ice for the duration of the injections. Rats were injected subcutaneously, in the subplantar region of one (right) paw with 0.1 ml of 2% w/v λ Carrageenan in sterile saline. […] Test compounds were, unless otherwise stated, administered i.p. at initial single dose of 3, 10 or 20 mg/kg, and volume dose of 5 ml/kg, immediately after the carrageenan injection. Selected compounds were also tested p.o. following oral gavage. Vehicle and celecoxib treated animals were used as controls. Each treatment group comprised at least seven animals.
Before induction of inflammatory pain and three hours after injection, the animals reactions to pain stimuli were tested in two systems. The first stimulus was thermal and assessed by the Plantar Test according to Hargreaves, using Ugo Basile Model 7370. The scale was set to an intensity of 50 arbitrary units. The latency time till the animal lift a paw as a reaction to the thermal stimulus was recorded for both the inflamed and non-inflamed hind paws. The second stimulus was mechanical (tactile) and assessed using a Dynamic Plantar Sesthesiomether (Ugo Basile Model 73400-002). […] Finally, the impact on paw edema was assessed. Paw thickness was measured using a dial thickness gauge (Spring-dial, constant low pressure gauge, Mitutoyo, TG/L-1, 0.01 mm) and paw volume was measured using a plethysmometer (model #7150, Ugo Basile, Italy). At the end of the study, animals were euthanized.
The results are measured as the differences between the two hind paws at time 0 and 3 hours both as ALT, for the latency time in the thermal part of the study, and as ΔForce, for the mechanical part of the study. The paw volume is expressed as percent from vehicle treated animals. Results are expressed as mean±SEM for each treatment group and the differences among those groups are analyzed by analysis of variance (ANOVA) followed by post-hoc Tukey's test.
Results refer to i.p. treatment with 10 mg/kg. Results marked with one asterisk refer to a dose 3 mg/kg, whereas two asterisks refer to 20 mg/kg. Celecoxib is included as reference.

T2 sequence (P34972 whole entry): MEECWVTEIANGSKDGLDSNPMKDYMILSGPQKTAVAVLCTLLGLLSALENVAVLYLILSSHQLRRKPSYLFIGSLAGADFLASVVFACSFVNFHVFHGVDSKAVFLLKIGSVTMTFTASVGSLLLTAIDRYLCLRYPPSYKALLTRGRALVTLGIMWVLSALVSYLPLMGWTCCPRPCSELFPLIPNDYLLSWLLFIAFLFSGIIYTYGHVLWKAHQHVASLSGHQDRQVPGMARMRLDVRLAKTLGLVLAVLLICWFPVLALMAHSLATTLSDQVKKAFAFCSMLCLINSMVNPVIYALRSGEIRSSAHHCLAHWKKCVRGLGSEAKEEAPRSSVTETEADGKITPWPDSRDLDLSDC
T1 sequence (P21554 whole entry): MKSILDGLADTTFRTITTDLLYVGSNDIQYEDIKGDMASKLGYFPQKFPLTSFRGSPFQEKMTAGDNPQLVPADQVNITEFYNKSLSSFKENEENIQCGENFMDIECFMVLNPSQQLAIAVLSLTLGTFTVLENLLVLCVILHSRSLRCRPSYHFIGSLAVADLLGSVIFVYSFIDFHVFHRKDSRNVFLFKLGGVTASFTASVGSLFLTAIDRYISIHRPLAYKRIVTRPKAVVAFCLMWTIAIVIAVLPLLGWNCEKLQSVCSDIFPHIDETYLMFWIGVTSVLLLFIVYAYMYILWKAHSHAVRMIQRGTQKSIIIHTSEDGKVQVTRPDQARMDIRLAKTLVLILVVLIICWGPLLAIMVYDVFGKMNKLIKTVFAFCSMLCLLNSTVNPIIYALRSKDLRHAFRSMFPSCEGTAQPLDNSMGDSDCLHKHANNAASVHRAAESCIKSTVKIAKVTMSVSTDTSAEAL

As usually defined, the EC50 is the concentration at which the effect is half-maximal. A high value points to lower potency in that assay. What is called Emax is the maximal effect, on the per cent scale that the assay sets. For `CCCCCCC(C)(C)c1cc(O)c2c(c1)OC1C(I)CCCCC21` (stereo not drawn) [Compound C7S-26, 2-(1,1-Dimethylheptyl)-9-iodo-5,6,7,8,9,9a-hexahydro-4bH-10-oxa-benzo[α]azulen-4-ol], in test [1], the half-maximal effective concentration (EC50) is 20 nM and the Emax worked out at 155%. In addition, in test [2], the “selectivity toward CB2” value is listed as “about 285 fold”, the 50% effective concentration (EC50) came out at 0.07 nM, the Emax was found to be 38% and the “agonistic activity toward cannabinoid receptors (in words)” value is “agonists toward both receptors with some degree of selectivity toward the CB2 receptor”. The inhibition in vivo at 2 mg/kg in test [3] stood at 26%.
Turning to `CCCCCCC(C)(C)c1cc(OC(=O)C=CC(=O)O)c2c(c1)OC1C(I)CCCCC21` (stereo not drawn) [Compound C7S-28, But-2-enedioic acid mono-[2-(1,1-dimethylheptyl)-9-iodo-5,6,7,8,9,9a-hexahydro-4bH-10-oxa-benzo[α]azulen-4-yl]ester], in test [1], the EC50 was 217 nM and the Emax amounted to 118%. Further, in test [2], the “selectivity toward CB2” value is on record as “about 10 fold”, the EC50 came to 16 nM, the Emax stood at 44% and the “agonistic activity toward cannabinoid receptors (in words)” value is on record as “agonists toward both receptors with some degree of selectivity toward the CB2 receptor”. For the same molecule, the inhibition in vivo at 2 mg/kg in test [3] is 56%.
`CCCCCCC(C)(C)c1cc(OC(=O)C=CC(=O)O)c2c(c1)OC1CCCCCC21` (stereo not drawn) [Compound C7S-9, But-2-enedioic acid mono-[2-(1,1-dimethylheptyl)-5,6,7,8,9,9a-hexahydro-4bH-10-oxa-benzo[α]azulen-4-yl]ester] registered an EC50 in test [1] above 10000 nM. For the same molecule, in test [2], a half-maximal response (EC50) required 712 nM and the Emax was found to be 52%. Further, in test [3], the inhibition in vivo at 2 mg/kg was found to be 26%.
Regarding `CCCCCCC(C)(C)c1cc(O)c2c(c1)OC1C(O)CCCCC21` (single isomer, unassigned) [Compound C7S-29, 2-(,1-dimethylheptyl)-5,6,7,8,9,9a-hexahydro-4bH-10-oxa-benzo[α]azulen-4,9-diol], in test [1], the EC50 is 79 nM and the Emax came to 41%. Moreover, in test [2], the “selectivity toward CB2” value is given as “non-selective agonist”, a half-maximal response (EC50) required 54 nM, the Emax is 60% and the “agonistic activity toward cannabinoid receptors (in words)” value is recorded as “agonists toward both receptors with some degree of selectivity toward the CB2 receptor”. In addition, the inhibition in vivo at 2 mg/kg in test [3] is above 90%.
Turning to `CCCCCCC(C)(C)c1cc(O)c2c(c1)OC1CC(C)(C)CCC21` (stereo not shown) [Compound C6S-17, 3-(1,1-dimethylheptyl)-7,7-dimethyl-5a,6,7,8,9,9a-hexahydro-dibenzofuran-1-ol], the inhibition in vivo at 3 mg/kg in test [4] (mechanical stimulus, read-out: Percent Inhibition of Inflammatory Pain Responses, ΔForce) is 37%; in test [4] (reduction in paw swelling, read-out: Percent Inhibition of Inflammatory Pain Responses, Edema) it was 44%; in test [4] (thermal stimulus, read-out: Percent Inhibition of Inflammatory Pain Responses, ΔLT), 60%. Besides, the EC50 is 2880 nM in test [1] and 4 nM in test [2]. Also, the values for the Emax in test [1] and in test [2] were -25% and 43%, respectively. Besides, in test [2], the “agonistic activity toward cannabinoid receptors (in words)” value is given as “agonists specific toward the CB2 receptor”. For the same molecule, the inhibition in vivo at 2 mg/kg in test [3] is 38%.
